For orientation: melting point means the temperature, or range, at which the solid turns liquid.

Structures can show the parent of a compound that is named as a salt.

Experimental findings from patent US20060063766A1, “Use of aryl- and heteroaryl-substituted tetrahydroisoquinolines to block reuptake of norepinephrine, dopamine, and serotonin” (priority 2004, published 2006) are described below.

In turn, `COc1c(C2CN(C)Cc3ccccc32)ccc2sccc12` (stereo not drawn) (as salt: fumarate) [Example 82 (−)] registered a melting point of 94 to 96 °C.

`CN1Cc2cc(N3CCCC3)ccc2C(c2cc3ccccc3s2)C1` (racemic) (as salt: maleate) registered a melting point of 105 to 108 °C. On to `CCN1Cc2ccccc2C(c2ccc3sccc3c2O)C1` (stereo not drawn) (as salt: fumarate) [Example 89 (+)], for which the melting point was in the range of 158 to 159 °C. The figure for `CN1Cc2ccccc2C(c2cccc3ccsc23)C1` (racemic) (as salt: salt) is 228 to 230 °C. On to `CN1Cc2ccccc2C(c2ccc3[nH]ncc3c2)C1.O=C(O)/C=C/C(=O)O` (stereo not shown), for which the melting point fell in the range of 83 to 88 °C. Under `CN1Cc2cc(CN3CCOCC3)ccc2C(c2cc3ccccc3s2)C1` (single isomer, unassigned) (as salt: maleate) stands 80 to 82 °C; under `CN1Cc2cc(-c3cccnn3)ccc2C(c2cc3ccccc3s2)C1` (stereo not shown) (as salt: maleate), 99 to 102 °C. Compound `CN1Cc2ccccc2C(c2ccc3cn[nH]c3c2)C1.O=C(O)/C=C/C(=O)O` (stereo not shown) yielded a melting point of 110 to 117 °C. Take `CN1Cc2cc(-c3ncccn3)ccc2C(c2ccc3ccccc3c2)C1.O=C(O)/C=C\C(=O)O` (stereo not shown) [Example 140]: the melting point is 84 to 85 °C.

On to `CN(C)Cc1ccc2c(c1)CN(C)CC2c1ccc2sccc2c1` (racemic) (as salt: fumarate), for which the melting point lay within 123 to 125 °C. Turning to `CN1Cc2cc(-c3cccnn3)ccc2C(c2ccc3ccccc3c2)C1` (single isomer, unassigned; (+)) (as salt: maleate) [Example 137, (+)-2-methyl-4-napthalen-2-yl-7-pyridazin-3-yl-1,2,3,4-tetrahydroisoquinoline, maleate salt], the melting point lay within 86 to 88 °C. In turn, `CN1Cc2ccccc2C(c2ccc3c(ccn3Cc3ccccc3)c2)C1` (racemic) (as salt: maleate) yielded a melting point of 81 to 85 °C. In the case of `COc1c(C2CN(C)Cc3ccccc32)ccc2sccc12` (stereo not drawn) (as salt: fumarate) [82 (+)], the melting point was 97 to 99 °C. The figure for `CN1Cc2ccccc2C(c2cc(Cl)c3[nH]ncc3c2)C1` (single isomer, unassigned; (-)) (as salt: maleate) [Example 125, (−)-4-(7-chloro-1H-indazol-5-yl)-2-methyl-1,2,3,4-tetrahydoisoquinoline, maleate salt] is 104 to 110 °C; for `COc1c(O)ccc2c1CN(C)CC2c1ccc2ccccc2c1.O=C(O)/C=C\C(=O)O` (stereo not shown) it is 85 to 90 °C. For the compound `CN1Cc2cc(-c3cnccn3)ccc2C(c2cc3ccccc3s2)C1` (racemic) (as salt: maleate) [Example 71, (±)-4-(benzo[b]thiophen-2-yl)-2-methyl-7-(pyrazin-2-yl)-1,2,3,4-tetrahydroisoquinoline], the melting point is 102 to 105 °C. With `CN1Cc2cc(C#N)ccc2C(c2ccc3sccc3c2)C1` (stereo not shown) (as salt: fumarate), the melting point was in the range of 112 to 114 °C.

For `CN1Cc2ccccc2C(c2nc3ccccc3o2)C1.O=C(O)/C=C\C(=O)O` (racemic), the melting point lay in the range of 135 to 140 °C. Consider `CN1Cc2cc(C#N)ccc2C(c2cc3ccccc3s2)C1` (stereo not drawn) (as salt: maleate) [Example 79 (+)], for which the melting point is 91 to 94 °C. As for `CN1Cc2ccccc2C(c2ccc3sccc3c2O)C1` (stereo not drawn) (as salt: fumarate) [Example 88 (+)], the melting point lay within 213 to 215 °C. As for `CN1Cc2ccccc2C(c2ccc3c(Cl)c[nH]c3c2)C1` (racemic) (as salt: maleate), the melting point was in the range of 94 to 98 °C. Compound `CN1Cc2ccccc2C(c2ccc3[nH]ncc3c2)C1` (stereo not shown) returned a melting point of 167 to 169 °C.

The compound `Cc1noc(C)c1-c1ccc2c(c1)CN(C)CC2c1cc2ccccc2s1` (racemic) (as salt: maleate) came in with a melting point of 92 to 95 °C.

Compound `CCN1Cc2ccccc2C(c2ccc3sccc3c2O)C1` (stereo not drawn) (as salt: fumarate) [Example 89 (−)] displayed a melting point of 155 to 157 °C.

On to `CN1Cc2cc(-c3ncccn3)ccc2C(c2ccc3ccccc3c2)C1.O=C(O)/C=C\C(=O)O` (stereo not drawn) [Example 140 (−)-enantiomer], for which the melting point fell in the range of 86 to 88 °C.

`CN1Cc2cc(-c3ccc(N(C)C)nn3)ccc2C(c2ccc3sccc3c2)C1` (stereo not shown) (as salt: fumarate) came in with a melting point of 116 to 119 °C.

In the case of `CN1Cc2cc(-c3ncccn3)ccc2C(c2cc3ccccc3s2)C1` (racemic) (as salt: maleate), the melting point lay in the range of 103 to 106 °C. In the case of `CN1Cc2ccccc2C(C2=Cc3ccccc3C2)C1` (stereo not shown) (as salt: maleate), the melting point is 184 to 187 °C.

`CN1Cc2cc(N3CCOCC3)ccc2C(c2cc3ccccc3s2)C1` (stereo not shown) (as salt: maleate) gave a melting point of 142 to 145 °C. In the case of `CCN1Cc2ccccc2C(c2ccc3sccc3c2OC)C1` (stereo not shown) (as salt: fumarate), the melting point lay in the range of 91 to 92 °C.

In turn, `CC1c2ccccc2C(c2ccc3sccc3c2)CN1C` (racemic) (as salt: fumarate) returned a melting point of 179 to 181 °C. Consider `CN1Cc2ccccc2C(c2nc3ccccc3s2)C1.O=C(O)/C=C\C(=O)O` (racemic), for which the melting point is 165 to 170 °C.

With `CN1Cc2cc(-c3cccnn3)ccc2C(c2cccc3sccc23)C1` (racemic) (as salt: maleate), the melting point is 94 to 97 °C.

As to `CN1Cc2ccccc2C(c2ccc3sccc3c2O)C1` (stereo not drawn) (as salt: fumarate) [Example 88 (−)], the melting point fell in the range of 214 to 216 °C.

`Cc1noc(C)c1-c1ccc2c(c1)CN(C)CC2c1ccc2ccccc2c1` (racemic) (as salt: maleate) [Example 142, (±)-7-(3,5-dimethyl-isoxazol-4-yl)-2-methyl-4-napthalen-2-yl-1,2,3,4-tetrahydroisoquinoline, maleate salt] came in with a melting point of 88 to 90 °C. For `COc1c(C2CN(C)Cc3ccccc32)ccc2ccsc12` (stereo not shown) (as salt: fumarate), the melting point fell in the range of 98 to 99 °C. As for `CN1Cc2c(cccc2N2CCOCC2)C(c2ccc3sccc3c2)C1.O=C(O)/C=C/C(=O)O` (racemic), the melting point was 148 to 153 °C.

For `Cc1cccc2c1CN(C)CC2c1ccc2ccccc2c1` (stereo not shown) (as salt: hydrochloride), the melting point lay in the range of 210 to 214 °C.

Regarding `COc1c(-c2cccnn2)ccc2c1CN(C)CC2c1ccc2ccccc2c1.O=C(O)/C=C/C(=O)O` (racemic), the melting point fell in the range of 182 to 186 °C. As for `CN1Cc2ccccc2C(c2ccc3c(cnn3Cc3cccc(C#N)c3)c2)C1.O=C(O)/C=C\C(=O)O` (stereo not shown), the melting point is 83 to 88 °C. As for `CN1Cc2cc(C#N)ccc2C(c2cc3ccccc3s2)C1` (stereo not drawn) (as salt: maleate) [Example 79 (−)], the melting point fell in the range of 80 to 84 °C. Compound `CN1Cc2cc(N3CCOCC3)ccc2C(c2cccc3sccc23)C1` (racemic) (as salt: maleate) registered a melting point of 103 to 107 °C.

In the case of `CN1Cc2cc(-c3cccnn3)ccc2C(c2ccc3sccc3c2)C1` (single isomer, unassigned; (+)) (as salt: fumarate) [Example 97, (+)-4-benzo[b]thiophen-5-yl-2-methyl-7-pyridazin-3-yl-1,2,3,4-tetrahydroisoquinoline], the melting point is 122 to 124 °C.
